Our source for the chromatographic logP and LogP values is US20200045972A1, “NOVEL 5-SUBSTITUTED IMIDAZOLYLMETHYL DERIVATIVES” (Bayer CropScience Aktiengesellschaft, priority 2016, published 2020).

A short description of this series: Measurement of LogP values by HPLC on reversed phase columns (EEC directive 79/831 Annex V.A8). The class given is physicochemical. The settings on record: method [a]: LC-UV, acidic range, 0.1% formic acid in water and acetonitrile as eluent (linear gradient from 10% to 95% acetonitrile); for chromatographic logP: reversed phase HPLC column. As for the experimental part:
Measurement of LogP values was performed according to EEC directive 79/831 Annex V.A8 by HPLC (High Performance Liquid Chromatography) on reversed phase columns with the following methods: • ^[a] LogP value is determined by measurement of LC-UV, in an acidic range, with 0.1% formic acid in water and acetonitrile as eluent (linear gradient from 10% acetonitrile to 95% acetonitrile). • ^[b] LogP value is determined by measurement of LC-UV, in a neutral range, with 0.001 molar ammonium acetate solution in water and acetonitrile as eluent (linear gradient from 10% acetonitrile to 95% acetonitrile). • ^[c] LogP value is determined by measurement of LC-UV, in an acidic range, with 0.1% phosphoric acid and acetonitrile as eluent (linear gradient from 10% acetonitrile to 95% acetonitrile). If more than one LogP value is available within the same method, all the values are given and separated by “+”. Calibration was done with straight-chain alkan2-ones (with 3 to 16 carbon atoms) with known LogP values (measurement of LogP values using retention times with linear interpolation between successive alkanones). Lambda-max-values were determined using UV-spectra from 200 nm to 400 nm and the peak values of the chromatographic signals.

By chromatographic logP is commonly meant lipophilicity estimated from chromatographic retention. A lower chromatographic logP goes with a more hydrophilic compound. `N#Cc1cncn1CC(O)(CC1CC(c2ccccc2)=NO1)C1(Cl)CC1` (racemic) [Example I-05, 1-[2-(1-chlorocyclopropyl)-2-hydroxy-3-(3-phenyl-4,5-dihydro-1,2-oxazol-5-yl)propyl]-1H-imidazole-5-carbonitrile] yielded a chromatographic logP of 2.71. Regarding `N#Cc1cncn1CC(O)(CC1CC(c2ccccc2)=NO1)C1(Cl)CC1` (racemic) [Example I-06, 1-[2-(1-chlorocyclopropyl)-2-hydroxy-3-(3-phenyl-4,5-dihydro-1,2-oxazol-5-yl)propyl]-1H-imidazole-5-carbonitrile], the LogP was 2.59 ^[a]. Molecule `N#Cc1cncn1CC(O)(Cc1cc(-c2ccccc2)no1)C1(Cl)CC1` (stereo not drawn) [Example I-03, 1-[2-(1-chlorocyclopropyl)-2-hydroxy-3-(3-phenyl-1,2-oxazol-5-yl)propyl]-1H-imidazole-5-carbonitrile] came in with a chromatographic logP of 2.54.
